Experimental data published in patent US9926281B2 (priority 2014, dated 2018).

Legend:
human ADAMTS-5 = human ADAMTS-5 (Homo sapiens (Human), UniProt Q9UNA0); conditions: read-out: hADAMTS-5 potency IC50
Description: Finally, the fluorescence is read on the Envision (Perkin Elmer) after an incubation of 90 min at 37° C.

human TACE = human TACE (Homo sapiens (Human), UniProt P78536); conditions: read-out: TACE potency IC50
Chain of human TACE (P78536 whole entry, looked up, change not shown): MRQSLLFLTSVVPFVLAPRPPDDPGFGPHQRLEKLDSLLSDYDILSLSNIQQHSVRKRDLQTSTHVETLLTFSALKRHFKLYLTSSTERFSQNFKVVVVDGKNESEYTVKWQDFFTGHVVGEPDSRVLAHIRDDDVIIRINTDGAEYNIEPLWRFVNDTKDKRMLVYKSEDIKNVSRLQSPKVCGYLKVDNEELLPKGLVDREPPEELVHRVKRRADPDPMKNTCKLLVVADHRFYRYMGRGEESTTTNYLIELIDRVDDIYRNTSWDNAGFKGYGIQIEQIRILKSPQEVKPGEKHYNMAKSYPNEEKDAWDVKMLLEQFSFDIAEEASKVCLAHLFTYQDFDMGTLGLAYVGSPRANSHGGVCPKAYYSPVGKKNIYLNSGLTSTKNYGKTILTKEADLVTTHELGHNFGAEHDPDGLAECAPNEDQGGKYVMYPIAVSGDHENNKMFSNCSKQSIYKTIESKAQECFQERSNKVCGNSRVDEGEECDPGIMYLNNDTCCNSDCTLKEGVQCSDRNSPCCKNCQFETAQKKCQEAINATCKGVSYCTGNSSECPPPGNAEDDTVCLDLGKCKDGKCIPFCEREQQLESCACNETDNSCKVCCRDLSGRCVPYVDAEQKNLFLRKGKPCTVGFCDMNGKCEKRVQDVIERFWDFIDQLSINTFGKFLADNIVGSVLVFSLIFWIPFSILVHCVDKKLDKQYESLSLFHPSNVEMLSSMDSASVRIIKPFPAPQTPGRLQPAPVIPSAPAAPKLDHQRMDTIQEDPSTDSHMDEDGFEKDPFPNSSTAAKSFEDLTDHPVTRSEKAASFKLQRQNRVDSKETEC

Chain of human ADAMTS-5 (Q9UNA0 262-930): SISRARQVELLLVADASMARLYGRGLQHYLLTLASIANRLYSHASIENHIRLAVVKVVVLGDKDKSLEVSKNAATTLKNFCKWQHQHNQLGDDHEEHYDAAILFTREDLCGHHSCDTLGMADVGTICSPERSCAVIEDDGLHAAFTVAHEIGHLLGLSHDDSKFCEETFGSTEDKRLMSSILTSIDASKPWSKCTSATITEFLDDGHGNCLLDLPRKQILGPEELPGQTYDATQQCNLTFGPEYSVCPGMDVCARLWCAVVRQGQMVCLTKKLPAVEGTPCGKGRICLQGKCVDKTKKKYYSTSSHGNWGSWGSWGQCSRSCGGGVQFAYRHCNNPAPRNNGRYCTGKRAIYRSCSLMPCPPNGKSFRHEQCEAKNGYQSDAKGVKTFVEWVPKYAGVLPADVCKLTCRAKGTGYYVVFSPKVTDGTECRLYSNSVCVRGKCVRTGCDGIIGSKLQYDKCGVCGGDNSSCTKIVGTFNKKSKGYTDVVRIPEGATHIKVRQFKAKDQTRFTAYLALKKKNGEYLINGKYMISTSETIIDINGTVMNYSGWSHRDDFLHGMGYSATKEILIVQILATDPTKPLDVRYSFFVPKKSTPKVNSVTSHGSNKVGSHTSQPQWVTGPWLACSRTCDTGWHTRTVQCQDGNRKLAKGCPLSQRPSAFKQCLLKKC

Structure (SMILES) | IC50 (human ADAMTS-5) [nM] | IC50 (human TACE) [nM]
C[C@H]1CN(C(=O)CCC2(C3CC3)NC(=O)NC2=O)CCN1c1cc(Cl)cc(Cl)n1 (stereo partly drawn) [compound 257, 5-cyclopropyl-5-[3-[(3S)-4-(4,6-dichloro-2-pyridyl)-3-methyl-piperazin-1-yl]-3-oxo-propyl]imidazolidine-2,4-dione] | 1570 | > 4000
C[C@H]1CN(C(=O)CCC2(C3CC3)NC(=O)NC2=O)CCN1c1cc(Cl)nc(Cl)c1 (stereo partly drawn) [compound 258, 5-cyclopropyl-5-[3-[(3S)-4-(2,6-dichloro-4-pyridyl)-3-methyl-piperazin-1-yl]-3-oxo-propyl]imidazolidine-2,4-dione] | 1530 | > 20000
CC(CC1(c2ccccn2)NC(=O)NC1=O)C(=O)N1CCN(c2cccc(F)c2)[C@@H](C)C1 (stereo partly drawn) [compound 263, 5-[3-[(3S)-4-(3-fluorophenyl)-3-methyl-piperazin-1-yl]-2-methyl-3-oxo-propyl]-5-(2-pyridyl)imidazolidine-2,4-dione] | 19 | 2620
CC(CC1(c2ccccn2)NC(=O)NC1=O)C(=O)N1CCN(c2ccc(F)c(F)c2)[C@@H](C)C1 (stereo partly drawn) [compound 264, 5-[3-[(3S)-4-(3,4-difluorophenyl)-3-methyl-piperazin-1-yl]-2-methyl-3-oxo-propyl]-5-(2-pyridyl)imidazolidine-2,4-dione] | 19 | > 4000
Cc1cc(N2CCN(C(=O)CCC3(C)NC(=O)NC3=O)CC2)c(F)cc1Cl (centres unmarked) [compound 267, 5-[3-[4-(4-chloro-2-fluoro-5-methyl-phenyl)piperazin-1-yl]-3-oxo-propyl]-5-methyl-imidazolidine-2,4-dione] | 3080 | > 4000
CC(CC1(c2ccccn2)NC(=O)NC1=O)C(=O)N1CCN(c2cccc(Cl)c2)[C@@H](C)C1 (stereo partly drawn) [compound 269, 5-[3-[(3S)-4-(3-chlorophenyl)-3-methyl-piperazin-1-yl]-2-methyl-3-oxo-propyl]-5-(2-pyridyl)imidazolidine-2,4-dione] | 19 | 840
CC(CC1(C)NC(=O)NC1=O)C(=O)N1C[C@H](C)N(c2cc(Cl)cc(Cl)c2)[C@@H](C)C1 (stereo partly drawn) [compound 271, 5-[3-[(3S,5S)-4-(3,5-dichlorophenyl)-3,5-dimethyl-piperazin-1-yl]-2-methyl-3-oxo-propyl]-5-methyl-imidazolidine-2,4-dione] | 1300 | > 20000
C[C@H]1CN(C(=O)CCC2(C3CC3)NC(=O)NC2=O)CCN1c1ccc2[nH]ccc2c1 (stereo partly drawn) [compound 274, 5-cyclopropyl-5-[3-[(3S)-4-(1H-indol-5-yl)-3-methyl-piperazin-1-yl]-3-oxo-propyl]imidazolidine-2,4-dione] | > 4000 | > 20000
CC(CC1(C)NC(=O)NC1=O)C(=O)N1CCN(c2cccnc2)[C@@H](C)C1 (stereo partly drawn) [compound 275, 5-methyl-5-[2-methyl-3-[(3S)-3-methyl-4-(3-pyridyl)piperazin-1-yl]-3-oxo-propyl]imidazolidine-2,4-dione] | 266 | > 20000
O=C1NC(=O)C(CCC(=O)N2CCN(c3ccncc3)CC2)(C2CC2)N1 (centres unmarked) [compound 278, 5-cyclopropyl-5-[3-oxo-3-[4-(4-pyridyl)piperazin-1-yl]propyl]imidazolidine-2,4-dione] | > 20000 | > 20000
COCC1(CC(C)C(=O)N2CCN(c3cc(F)c(Cl)c(F)c3)CC2)NC(=O)NC1=O (centres unmarked) [compound 279, 5-[3-[4-(4-chloro-3,5-difluoro-phenyl)piperazin-1-yl]-2-methyl-3-oxo-propyl]-5-(methoxymethyl)imidazolidine-2,4-dione] | 19 | 2990
C[C@H]1CN(C(=O)CCC2(C3CC3)NC(=O)NC2=O)CCN1c1cccc2ccoc12 (stereo partly drawn) [compound 280, 5-[3-[(3S)-4-(benzofuran-7-yl)-3-methyl-piperazin-1-yl]-3-oxo-propyl]-5-cyclopropyl-imidazolidine-2,4-dione] | 275 | > 20000
C[C@H]1CN(C(=O)CCC2(C3CC3)NC(=O)NC2=O)CCN1c1cccc(-c2cnn(C)c2)c1 (stereo partly drawn) [compound 283, 5-cyclopropyl-5-[3-[(3S)-3-methyl-4-[3-(1-methylpyrazol-4-yl)phenyl]piperazin-1-yl]-3-oxo-propyl]imidazolidine-2,4-dione] | 1080 | > 20000
C[C@H]1CN(C(=O)CCC2(C3CC3)NC(=O)NC2=O)CCN1c1nccc(Cl)n1 (stereo partly drawn) [compound 284, 5-[3-[(3S)-4-(4-chloropyrimidin-2-yl)-3-methyl-piperazin-1-yl]-3-oxo-propyl]-5-cyclopropyl-imidazolidine-2,4-dione] | > 12000 | > 20000
C[C@H]1CN(C(=O)CCC2(C3CC3)NC(=O)NC2=O)CCN1c1ccc(Cl)nn1 (stereo partly drawn) [compound 285, 5-[3-[(3S)-4-(6-chloropyridazin-3-yl)-3-methyl-piperazin-1-yl]-3-oxo-propyl]-5-cyclopropyl-imidazolidine-2,4-dione] | 892 | > 4000
C[C@H]1CN(C(=O)CCC2(C3CC3)NC(=O)NC2=O)CCN1c1cnccn1 (stereo partly drawn) [compound 286, 5-cyclopropyl-5-[3-[(3S)-3-methyl-4-pyrazin-2-yl-piperazin-1-yl]-3-oxo-propyl]imidazolidine-2,4-dione] | > 4000 | > 20000

Structure (SMILES) | IC50 (human ADAMTS-5) [nM] | IC50 (human TACE) [nM]
C[C@H]1CN(C(=O)CCC2(C3CC3)NC(=O)NC2=O)CCN1c1cnc2ccccc2c1 (stereo partly drawn) [compound 289, 5-cyclopropyl-5-[3-[(3S)-3-methyl-4-(3-quinolyl)piperazin-1-yl]-3-oxo-propyl]imidazolidine-2,4-dione] | 97 | > 4000
COCC(CC1(C)NC(=O)NC1=O)C(=O)N1CCN(c2cccc(F)c2)[C@@H](C)C1 (stereo partly drawn) [compound 292, 5-[3-[(3S)-4-(3-fluorophenyl)-3-methyl-piperazin-1-yl]-2-(methoxymethyl)-3-oxo-propyl]-5-methyl-imidazolidine-2,4-dione] | 48 | > 4000
C[C@H]1CN(C(=O)CCC2(C3CC3)NC(=O)NC2=O)CCN1c1ccc2[nH]ncc2c1 (stereo partly drawn) [compound 296, 5-cyclopropyl-5-[3-[(3S)-4-(1H-indazol-5-yl)-3-methyl-piperazin-1-yl]-3-oxo-propyl]imidazolidine-2,4-dione] | > 4000 | > 20000
C[C@H]1CN(C(=O)CCC2(C3CC3)NC(=O)NC2=O)CCN1c1ccc2c(cnn2C)c1 (stereo partly drawn) [compound 297, 5-cyclopropyl-5-[3-[(3S)-3-methyl-4-(1-methylindazol-5-yl)piperazin-1-yl]-3-oxo-propyl]imidazolidine-2,4-dione] | > 3620 | > 20000
Cc1cc(N2CCN(C(=O)CCC3(C4CC4)NC(=O)NC3=O)C[C@@H]2C)ccc1F (stereo partly drawn) [compound 298, 5-cyclopropyl-5-[3-[(3S)-4-(4-fluoro-3-methyl-phenyl)-3-methyl-piperazin-1-yl]-3-oxo-propyl]imidazolidine-2,4-dione] | 192 | > 20000
Cc1ccc(N2CCN(C(=O)CCC3(C4CC4)NC(=O)NC3=O)C[C@@H]2C)cc1F (stereo partly drawn) [compound 299, 5-cyclopropyl-5-[3-[(3S)-4-(3-fluoro-4-methyl-phenyl)-3-methyl-piperazin-1-yl]-3-oxo-propyl]imidazolidine-2,4-dione] | 114 | > 20000
C[C@H]1CN(C(=O)CCC2(C3CC3)NC(=O)NC2=O)CCN1c1ccc(F)cc1 (stereo partly drawn) [compound 300, 5-cyclopropyl-5-[3-[(3S)-4-(4-fluorophenyl)-3-methyl-piperazin-1-yl]-3-oxo-propyl]imidazolidine-2,4-dione] | 140 | > 20000
C[C@H]1CN(C(=O)CCC2(C3CC3)NC(=O)NC2=O)CCN1c1ccnc(Cl)n1 (stereo partly drawn) [compound 301, 5-[3-[(3S)-4-(2-chloropyrimidin-4-yl)-3-methyl-piperazin-1-yl]-3-oxo-propyl]-5-cyclopropyl-imidazolidine-2,4-dione] | > 20000 | > 20000
Cc1cncc(N2CCN(C(=O)CCC3(C4CC4)NC(=O)NC3=O)C[C@@H]2C)c1 (stereo partly drawn) [compound 303, 5-cyclopropyl-5-[3-[(3S)-3-methyl-4-(5-methyl-3-pyridyl)piperazin-1-yl]-3-oxo-propyl]imidazolidine-2,4-dione] | 266 | > 20000
C[C@H]1CN(C(=O)CCC2(C3CC3)NC(=O)NC2=O)CCN1c1cncnc1 (stereo partly drawn) [compound 304, 5-cyclopropyl-5-[3-[(3S)-3-methyl-4-pyrimidin-5-yl-piperazin-1-yl]-3-oxo-propyl]imidazolidine-2,4-dione] | > 4000 | > 20000
Cc1ccc(N2CCN(C(=O)CCC3(C4CC4)NC(=O)NC3=O)C[C@@H]2C)cc1Cl (stereo partly drawn) [compound 306, 5-[3-[(3S)-4-(3-chloro-4-methyl-phenyl)-3-methyl-piperazin-1-yl]-3-oxo-propyl]-5-cyclopropyl-imidazolidine-2,4-dione] | 67 | > 4000
Cc1cccc(C2(CCC(=O)N3CCN(c4cc(Cl)cc(Cl)c4)[C@@H](C)C3)NC(=O)NC2=O)n1 (stereo partly drawn) [compound 310, 5-[3-[(3S)-4-(3,5-dichlorophenyl)-3-methyl-piperazin-1-yl]-3-oxo-propyl]-5-(6-methyl-2-pyridyl)imidazolidine-2,4-dione] | 50 | 1320
Cc1cccc(C2(CCC(=O)N3CCN(c4cccc(Cl)c4)[C@@H](C)C3)NC(=O)NC2=O)n1 (stereo partly drawn) [compound 311, 5-[3-[(3S)-4-(3-chlorophenyl)-3-methyl-piperazin-1-yl]-3-oxo-propyl]-5-(6-methyl-2-pyridyl)imidazolidine-2,4-dione] | 57 | 3070
Cc1cccc(C2(CCC(=O)N3CCN(c4ccc(Cl)cc4)[C@@H](C)C3)NC(=O)NC2=O)n1 (stereo partly drawn) [compound 312, 5-[3-[(3S)-4-(4-chlorophenyl)-3-methyl-piperazin-1-yl]-3-oxo-propyl]-5-(6-methyl-2-pyridyl)imidazolidine-2,4-dione] | 40 | 3680
C[C@H]1CN(C(=O)CCC2(c3cccnc3)NC(=O)NC2=O)CCN1c1ccc(Cl)c(F)c1 (stereo partly drawn) [compound 315, 5-[3-[(3S)-4-(4-chloro-3-fluoro-phenyl)-3-methyl-piperazin-1-yl]-3-oxo-propyl]-5-(3-pyridyl)imidazolidine-2,4-dione] | 42 | > 4000
